GI50 and TGI data for 14 molecules are collected here from PubChem BioAssay (NCI).

Molecules are shown by their SMILES.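 Test compounds were applied to cells in 96-well plates for 48 hours at 5 doses. GI50 marks 50% less growth. TGI is the concentration that stops growth completely.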

Some test systems named below: HCC-2998 colon; COLO 205 colon; SR leukemia; NCI-H460 lung; HCT-15 colon; MALME-3M melanoma; RXF 393 renal; EKVX NSCLC; SK-OV-3 ovarian; OVCAR-3 ovarian.
Holding throughout (test): DTP human tumour cell line panel, 48 h

For the molecule `CC1=Cc2cc3[n-]c(cc4nc(cc5[n-]c(cc1n2)cc5C)C(C)=C4CCC(=O)O)c(CCC(=O)O)c3C.[Pd+2]`, the GI50 (in general, the concentration that inhibits growth by half) is 10.2 µM in the assay on HCC-2998 colon; 16.8 µM with COLO 205 colon; 2.82 µM in the assay on SR leukemia; 33.5 µM in the assay with NCI-H460 lung; 18.4 µM in the assay with HCT-15 colon; 10.5 µM with MALME-3M melanoma. In addition, the GI50 was 17.9 µM in the assay with RXF 393 renal, over 28.9 µM in the assay on EKVX NSCLC, 11.5 µM in the assay on SK-OV-3 ovarian and 7.51 µM in the assay on OVCAR-3 ovarian. Moreover, the TGI (usually the concentration at which net growth stops) in the assay with HCC-2998 colon worked out at 28.8 µM; with COLO 205 colon it was 41.6 µM; with SR leukemia it was 9.75 µM; in the assay with NCI-H460 lung it was 59.2 µM; with HCT-15 colon it was 42.5 µM; in the assay with MALME-3M melanoma, 38.5 µM. The TGI with RXF 393 renal is over 37.9 µM; in the assay on EKVX NSCLC, over 54.6 µM; with SK-OV-3 ovarian it was 30.1 µM; in the assay with OVCAR-3 ovarian, 27.1 µM.
As for `COC(=O)c1ccc(N=NN(C)CO)cc1`, the TGI in the assay on HCC-2998 colon, in the assay on COLO 205 colon, in the assay with SR leukemia, in the assay with NCI-H460 lung, in the assay on HCT-15 colon and in the assay with MALME-3M melanoma was over 100 µM each time. The TGI in the assay with RXF 393 renal, in the assay with EKVX NSCLC, with SK-OV-3 ovarian and in the assay on OVCAR-3 ovarian was over 100 µM each time.
Turning to `O=C1CCC2(C=C(Br)C(=O)C(Br)=C2)O1`, the GI50 is 18.7 µM in the assay on HCC-2998 colon; 1.52 µM with COLO 205 colon; 2.59 µM with SR leukemia; 19.6 µM in the assay with NCI-H460 lung; 2.77 µM in the assay on HCT-15 colon; 2.07 µM in the assay on MALME-3M melanoma. The GI50 with RXF 393 renal was 2.82 µM; in the assay with EKVX NSCLC, 5.29 µM; in the assay with SK-OV-3 ovarian, 17.4 µM; in the assay on OVCAR-3 ovarian it was 1.65 µM. Further, the TGI in the assay with HCC-2998 colon turned out to be 33.5 µM; with COLO 205 colon, 2.98 µM; with SR leukemia it was 9.69 µM; with NCI-H460 lung it was 38.6 µM; with HCT-15 colon it was 8.76 µM; with MALME-3M melanoma, 4.67 µM. The total growth inhibition concentration (TGI) was 6.96 µM with RXF 393 renal, 12.6 µM with EKVX NSCLC, 31.3 µM in the assay on SK-OV-3 ovarian and 3.02 µM in the assay with OVCAR-3 ovarian.
For the molecule `CC(NNC(=S)N1CCCCCC1)c1ccc2ccccc2n1` (configuration not stated), the GI50 with HCC-2998 colon is 3.35 µM; in the assay with COLO 205 colon, 0.284 µM; in the assay on SR leukemia it was 0.759 µM; in the assay on NCI-H460 lung it was 1.05 µM; with HCT-15 colon, 1.06 µM; in the assay on MALME-3M melanoma, 3.15 µM. Moreover, the GI50 in the assay with RXF 393 renal was 4.7 µM; in the assay on SK-OV-3 ovarian, 6.24 µM; in the assay on OVCAR-3 ovarian it was 0.41 µM. Moreover, the TGI in the assay with HCC-2998 colon was 22.6 µM; in the assay on COLO 205 colon, 19 µM; in the assay with SR leukemia it was over 48.9 µM; in the assay with NCI-H460 lung, over 78.9 µM; in the assay on HCT-15 colon it was 51.6 µM; in the assay with MALME-3M melanoma, 37.8 µM. Also, the figures for the TGI in the assay with RXF 393 renal, with SK-OV-3 ovarian and in the assay with OVCAR-3 ovarian were 21.2 µM, 26.9 µM and 18.8 µM, respectively.
With `CS(=O)c1ccc(COP(N)(=O)N(CCCl)CCCl)cc1` (configuration not stated), the TGI in the assay with HCC-2998 colon, in the assay on COLO 205 colon, in the assay on SR leukemia, in the assay with NCI-H460 lung, with MALME-3M melanoma and in the assay with RXF 393 renal was over 100 µM each time. The total growth inhibition concentration (TGI) in the assay with EKVX NSCLC, in the assay with SK-OV-3 ovarian and in the assay with OVCAR-3 ovarian was over 100 µM throughout.
As to `CCOC(=O)c1ccc(N2C(=O)/C(=C\OC)c3ccccc3C2=O)cc1`, the total growth inhibition concentration (TGI) was over 100 µM with HCC-2998 colon; over 100 µM in the assay on COLO 205 colon; over 100 µM in the assay on SR leukemia; over 100 µM with HCT-15 colon; over 100 µM with MALME-3M melanoma; 61.3 µM in the assay on RXF 393 renal. Moreover, the results for the TGI in the assay on EKVX NSCLC, in the assay with SK-OV-3 ovarian and with OVCAR-3 ovarian were over 100 µM, 41.9 µM and over 100 µM, respectively.
For the molecule `O=C(NOCC1CC1)c1ccc(F)c(F)c1Nc1ccc(I)cc1Cl`, the GI50 in the assay with HCC-2998 colon is 0.178 µM; with COLO 205 colon it was 0.0704 µM; in the assay on SR leukemia it was 3.04 µM; in the assay on NCI-H460 lung it was 2.42 µM; in the assay on HCT-15 colon, 1.57 µM; with MALME-3M melanoma, 0.0228 µM. Besides, the figures for the GI50 with RXF 393 renal, in the assay with SK-OV-3 ovarian and with OVCAR-3 ovarian were 2.11 µM, 4.35 µM and 2.62 µM, respectively. Further, the TGI in the assay with HCC-2998 colon was 2.69 µM; in the assay on COLO 205 colon, 3.54 µM; in the assay on SR leukemia, 12.1 µM; with NCI-H460 lung, over 100 µM; in the assay with HCT-15 colon, over 32.7 µM; in the assay with MALME-3M melanoma it was 0.0674 µM. Moreover, the figures for the TGI with RXF 393 renal, in the assay on SK-OV-3 ovarian and in the assay on OVCAR-3 ovarian were 8.95 µM, over 100 µM and 7.54 µM, respectively.
`O=S1(=O)C[C@@H](O)[C@H](O)CS1`: the TGI in the assay with HCC-2998 colon, in the assay on COLO 205 colon, with SR leukemia, in the assay with NCI-H460 lung, in the assay with MALME-3M melanoma and in the assay with RXF 393 renal was over 100 µM in each case. In addition, the TGI with EKVX NSCLC, in the assay with SK-OV-3 ovarian and in the assay on OVCAR-3 ovarian was over 100 µM throughout.
On to `COc1cc(/C=C/C(=O)c2ccc(Cl)cc2)ccc1OS(=O)(=O)c1ccc(C)cc1`, for which the GI50 is 12.4 µM with HCC-2998 colon; 12.3 µM in the assay on COLO 205 colon; 1.9 µM with SR leukemia; 17.3 µM in the assay on NCI-H460 lung; 1.74 µM with HCT-15 colon; 13.1 µM in the assay on MALME-3M melanoma. Also, the GI50 in the assay on RXF 393 renal was 13.2 µM; in the assay on SK-OV-3 ovarian, 30.1 µM; in the assay with OVCAR-3 ovarian, 3.57 µM. Besides, the TGI stood at 26.7 µM in the assay on HCC-2998 colon; 39.7 µM in the assay with COLO 205 colon; 6.56 µM in the assay with SR leukemia; 72.4 µM in the assay with NCI-H460 lung; 3.81 µM with HCT-15 colon; 33.6 µM with MALME-3M melanoma. The TGI is 29.5 µM in the assay on RXF 393 renal, over 100 µM in the assay with SK-OV-3 ovarian and 12.6 µM with OVCAR-3 ovarian.
As for `CC(=O)OC(C)(C)/C=C/C(=O)[C@](C)(O)[C@H]1[C@H](O)C[C@@]2(C)[C@@H]3CC=C4[C@@H](C[C@H](O)C(=O)C4(C)C)[C@]3(C)C(=O)C[C@]12C`, the TGI in the assay with HCC-2998 colon is 4.45 µM; with SR leukemia, 1.21 µM; in the assay with NCI-H460 lung it was 1.37 µM; in the assay with HCT-15 colon, 4.99 µM; with MALME-3M melanoma, 1.55 µM; with RXF 393 renal, under 0.0128 µM. The total growth inhibition concentration (TGI) in the assay on EKVX NSCLC is under 0.0221 µM; in the assay on SK-OV-3 ovarian it was under 0.0234 µM; in the assay on OVCAR-3 ovarian, 0.17 µM.
As for `CN(C)c1ccc2c3c(c(=O)oc2c1)CCC3`, the concentration for total growth inhibition (TGI) in the assay with HCC-2998 colon, in the assay with COLO 205 colon, in the assay on SR leukemia, with NCI-H460 lung, in the assay on HCT-15 colon and in the assay with RXF 393 renal was over 100 µM each time. In addition, the total growth inhibition concentration (TGI) with EKVX NSCLC and with OVCAR-3 ovarian was over 100 µM in each case.
Regarding `C[C@]12CC[C@@H]3c4ccc(O)cc4CC[C@H]3[C@@H]1CC[C@@H]2NS(=O)(=O)Cc1ccc(Cl)cc1`, the GI50 was 2.99 µM with HCC-2998 colon; 1.81 µM in the assay on COLO 205 colon; 3.69 µM with SR leukemia; 2.23 µM in the assay with NCI-H460 lung; 2.33 µM in the assay on HCT-15 colon; 2.85 µM in the assay on MALME-3M melanoma. Moreover, the GI50 in the assay on RXF 393 renal was 2.04 µM; in the assay on SK-OV-3 ovarian, 3.02 µM; in the assay with OVCAR-3 ovarian it was 1.91 µM. Moreover, the TGI in the assay with HCC-2998 colon was 8.14 µM; with COLO 205 colon, 3.27 µM; in the assay with SR leukemia, over 100 µM; with NCI-H460 lung, 5.31 µM; in the assay on HCT-15 colon it was 7.76 µM; with MALME-3M melanoma, 9.95 µM. Besides, the TGI worked out at 6.06 µM in the assay on RXF 393 renal, 7.77 µM with SK-OV-3 ovarian and 3.83 µM in the assay with OVCAR-3 ovarian.
Take `S=C(N/N=C/c1ccccn1)Nc1ccccn1`: the GI50 with HCC-2998 colon is 2.19 µM; in the assay on COLO 205 colon it was 0.471 µM; in the assay on SR leukemia, 0.52 µM; in the assay on NCI-H460 lung, 0.962 µM; in the assay with HCT-15 colon, 0.575 µM; with MALME-3M melanoma it was 1.81 µM. In addition, the GI50 in the assay on RXF 393 renal was 0.485 µM; in the assay on SK-OV-3 ovarian, 2.29 µM; with OVCAR-3 ovarian, 0.327 µM. Also, the TGI in the assay with HCC-2998 colon was over 100 µM; in the assay on COLO 205 colon it was over 100 µM; in the assay on SR leukemia, over 100 µM; with NCI-H460 lung it was 12.6 µM; in the assay on HCT-15 colon it was over 100 µM; with MALME-3M melanoma, over 100 µM. The TGI in the assay with RXF 393 renal is 4.15 µM; with SK-OV-3 ovarian, over 100 µM; in the assay on OVCAR-3 ovarian, 3.14 µM.
With `CCSc1nc(N=Cc2cccs2)c2cn[nH]c2n1`, the GI50 in the assay on HCC-2998 colon is 2.87 µM; with COLO 205 colon, 10.9 µM; with SR leukemia it was 2.1 µM; in the assay on NCI-H460 lung, 14.5 µM; in the assay on HCT-15 colon, 24.6 µM; with RXF 393 renal it was 2.85 µM. Besides, the results for the GI50 with EKVX NSCLC, with SK-OV-3 ovarian and in the assay on OVCAR-3 ovarian were 67.8 µM, 56 µM and 10.4 µM, respectively. The TGI in the assay on HCC-2998 colon is 11.3 µM; in the assay with COLO 205 colon, 24.9 µM; in the assay on SR leukemia, 7.21 µM; with NCI-H460 lung it was over 100 µM; in the assay on HCT-15 colon, over 100 µM; in the assay with RXF 393 renal, 7.72 µM. Besides, the TGI in the assay on EKVX NSCLC was over 100 µM; in the assay on SK-OV-3 ovarian, over 100 µM; in the assay with OVCAR-3 ovarian, 53.9 µM.
